Experimental data reported in patent US20040146971A1, “Novel p53 inducible protein” (priority 2001, published 2004).
Starred links: 1 amine or outer side, 2 acyl side, 3 side chain; linkers in the order of their positions; H or OH if unused. Positions of bridges follow the written chain, without caps; N, C: chain ends. Non-standard residues stand in square brackets, D forms with d. Residues, ends and D or L forms follow the SMILES beside them. Chains are numbered I, II in the order given. Actinocin(9to1) = Cc1c2oc3c(C)ccc(C(=O)[*:1])c3nc-2c(C(=O)[*:2])c(N)c1=O; NMeV = CN[C@H](C(=O)O)C(C)C; Sar = CNCC(=O)O

How the values were obtained:
Scotin [1] = experiment: Western blot of Scotin protein induction in mouse embryonic fibroblasts; format: cell-based; conditions: 60 ng/ml
Description: (§1) FIG. 7 is a western blot which illustrates that p53 is necessary and sufficient to induce Scotin protein expression. a) Only primary mouse embryonic fibroblasts (MEF) expressing WTp53 induce Scotin after UV irradiation or Actinomycin D treatment. MEF from p53−/− and p53+/+ littermate mice were exposed to UV-C light (20 J/m2) or Actinomycin D (60 ng/ml). Proteins were extracted at time indicated after treatment and analysed by Western blot by using affinity purified rabbit polyclonal anti-mouse-Scotin antibody. As a positive control, p53 and Waf induction were determined by using CM5 rabbit polyclonal anti-mouse p53 antibody and F5 mouse monoclonal anti-Waf antibody. […] Scotin expression was analysed by Western blot by using affinity purified rabbit polyclonal anti-human Scotin antibody. […]
(§2) Cells were washed and scraped in PBS buffer and centrifuged at 2000 rpm for 2 min. […] Protein concentration of the supernatant was determined by the Bradford assay. […]
(§3) In order to further characterise Scotin protein, it was essential to identify cell lines that could induce Scotin upon DNA damage. […] Proteins were extracted after treatment and levels analysed by Western blot Waf and p53 protein levels were used as an indication of p53 activation.

Scotin [2] = experiment: Western blot of Scotin protein induction in human fibroblasts and tumour cell lines; format: cell-based
Description: as §1, §2, §3

[3] = tested on: NIH3T3-derived Scotin antisense and control antisense fibroblasts; experiment: Cell survival by Giemsa staining, Scotin antisense versus control antisense fibroblasts; format: cell-based, mouse; conditions: different doses
Description: Cell survival was determinated as described in the Experimental Procedures by trypan blue 24 h after irradiation. Histogram represents the compilation of 4 independent experiments. Standard Deviation is reported as error bars. b) Clonoge assay; Scotin antisense and control antisense expressing fibroblasts were treated at concentrations indicated with the DNA-damaging agent Doxorubicin (Dx) or with the activators of ER stress Thapsigargin (Tg) or Tunicamycin (Tu) or with an activator of mitochondrial stress, FCCP. After treatment, cells were fixed in methanol and stained by Giemsa.
Cells were treated with different doses of doxorubicin for 24 h and were allowed to recover for 24 h after treatment. Cell survival was estimated by giemsa staining.
(§4) The list of conditions known to trigger the ER stress response includes treatment of cells with thapsigargin, which interferes with calcium flux across the ER membrane, or tunicamycin, an inhibitor of N-linked glycosylation, or reducing agents, or deprivation of nutrients such as glucose, amino acids, or hypoxia. […] NIH3T3, p53−/−, Scotin antisense and control antisense expressing fibroblasts were treated with different doses of thapsigargin or tunicamycin or FCCP, a protonophore inducing mitochondrial stress. Cell survival was estimated by giemsa staining (FIG. 12.3).

p53−/− fibroblasts = experiment: Apoptosis of p53-/- fibroblasts after ER stress activators; format: cell-based, mouse
Description: as §4

NIH3T3 fibroblasts = experiment: TUNEL staining of drug-treated NIH3T3 fibroblasts; format: cell-based, mouse; conditions: NIH3T3, 24 h; tunicamycin 1 μg/ml, thapsigargin 150 nM
Description: NIH3T3 fibroblasts were treated for 24 h with 1 μg/ml of tunicamycin, fixed by paraformaldehyde and stained by TUNEL. Cells in apoptosis are stained by TUNEL (eft hand images).
For TUNEL assay, cells (3×10^5) seeded on 2-well glass chamber slide, were transfected as described. Cells were fixed for 30 min at RT in 4% paraformaldehyde in PBS, washed in PBS and permeabilised 2 min at 4° C. in 0.1% Triton X-100, 0.1% sodium citrate. The TUNEL staining was performed accordingly to the manufacturer's protocol (In Situ Cell Death Detection kit, Roche Molecular Biochemicals). The apoptotic cells presenting fragmented DNA were then labelled in green after incorporation of fluorescein.

Compound | resistance of Scotin antisense cells compared with control antisense cells to cell death induced by the drug [3] | apoptosis induced by the drug in p53−/− fibroblasts (p53−/− fibroblasts) | further results
Cc1c2oc3c(C)ccc(C(=O)N[C@@H]4C(=O)N[C@H](C(C)C)C(=O)N5CCC[C@H]5C(=O)N(C)CC(=O)N(C)[C@@H](C(C)C)C(=O)O[C@@H]4C)c3nc-2c(C(=O)N[C@@H]2C(=O)N[C@H](C(C)C)C(=O)N3CCC[C@H]3C(=O)N(C)CC(=O)N(C)[C@@H](C(C)C)C(=O)O[C@@H]2C)c(N)c1=O [Actinomycin D] (I: T[dV]P[Sar][NMeV] / II: T[dV]P[Sar][NMeV]; ester I:1-I:C, II:1-II:C; linker I:N-II:N via Actinocin(9to1)) | – | – | Scotin protein level (Scotin [1]; p53+/+ MEF): clearly accumulated; Scotin protein level (Scotin [1]; p53−/− MEF): not; Scotin protein level (Scotin [2]; human primary fibroblast and tumour cells expressing wt p53, 60 ng/ml): clearly accumulated; Scotin protein level (Scotin [2]; human tumour cell lines devoid of p53 expression, 60 ng/ml): not
N#CC(C#N)=NNc1ccc(OC(F)(F)F)cc1 [FCCP] | not | – | –
COc1cccc2c1C(=O)c1c(O)c3c(c(O)c1C2=O)C[C@@](O)(C(=O)CO)C[C@@H]3O[C@H]1C[C@H](N)[C@H](O)[C@H](C)O1 [doxorubicin] | more resistant | – | –
C/C=C(/C)C(=O)O[C@H]1C(C)=C2[C@H]([C@@H]1OC(=O)CCCCCCC)[C@@](C)(OC(C)=O)C[C@H](OC(=O)CCC)[C@@]1(O)[C@H]2OC(=O)[C@@]1(C)O [thapsigargin] | more resistant | resistant | –
tunicamycin | more resistant | resistant | cell death by TUNEL (NIH3T3 fibroblasts): die by apoptosis
